# From US9617257B2, “Fused pyridine derivatives useful as c-Met tyrosine kinase inhibitors” (BETA PHARMACEUTICALS CO., LTD., priority 2012, dated 2017)
# Where two headings read alike, the source gives them in different places.
# Legend:
# Met (h) = target: T1, Met (h) (Homo sapiens, UniProt P08581); experiment: Met (h) kinase assay (33P-ATP filter assay, performed by Millipore); format: biochemical; conditions: 0.2 μM test compound; remaining activity relative to DMSO control set to 100%; duplicate
# T1 construct: purchased Millipore
# T1 sequence (P08581 25-1390): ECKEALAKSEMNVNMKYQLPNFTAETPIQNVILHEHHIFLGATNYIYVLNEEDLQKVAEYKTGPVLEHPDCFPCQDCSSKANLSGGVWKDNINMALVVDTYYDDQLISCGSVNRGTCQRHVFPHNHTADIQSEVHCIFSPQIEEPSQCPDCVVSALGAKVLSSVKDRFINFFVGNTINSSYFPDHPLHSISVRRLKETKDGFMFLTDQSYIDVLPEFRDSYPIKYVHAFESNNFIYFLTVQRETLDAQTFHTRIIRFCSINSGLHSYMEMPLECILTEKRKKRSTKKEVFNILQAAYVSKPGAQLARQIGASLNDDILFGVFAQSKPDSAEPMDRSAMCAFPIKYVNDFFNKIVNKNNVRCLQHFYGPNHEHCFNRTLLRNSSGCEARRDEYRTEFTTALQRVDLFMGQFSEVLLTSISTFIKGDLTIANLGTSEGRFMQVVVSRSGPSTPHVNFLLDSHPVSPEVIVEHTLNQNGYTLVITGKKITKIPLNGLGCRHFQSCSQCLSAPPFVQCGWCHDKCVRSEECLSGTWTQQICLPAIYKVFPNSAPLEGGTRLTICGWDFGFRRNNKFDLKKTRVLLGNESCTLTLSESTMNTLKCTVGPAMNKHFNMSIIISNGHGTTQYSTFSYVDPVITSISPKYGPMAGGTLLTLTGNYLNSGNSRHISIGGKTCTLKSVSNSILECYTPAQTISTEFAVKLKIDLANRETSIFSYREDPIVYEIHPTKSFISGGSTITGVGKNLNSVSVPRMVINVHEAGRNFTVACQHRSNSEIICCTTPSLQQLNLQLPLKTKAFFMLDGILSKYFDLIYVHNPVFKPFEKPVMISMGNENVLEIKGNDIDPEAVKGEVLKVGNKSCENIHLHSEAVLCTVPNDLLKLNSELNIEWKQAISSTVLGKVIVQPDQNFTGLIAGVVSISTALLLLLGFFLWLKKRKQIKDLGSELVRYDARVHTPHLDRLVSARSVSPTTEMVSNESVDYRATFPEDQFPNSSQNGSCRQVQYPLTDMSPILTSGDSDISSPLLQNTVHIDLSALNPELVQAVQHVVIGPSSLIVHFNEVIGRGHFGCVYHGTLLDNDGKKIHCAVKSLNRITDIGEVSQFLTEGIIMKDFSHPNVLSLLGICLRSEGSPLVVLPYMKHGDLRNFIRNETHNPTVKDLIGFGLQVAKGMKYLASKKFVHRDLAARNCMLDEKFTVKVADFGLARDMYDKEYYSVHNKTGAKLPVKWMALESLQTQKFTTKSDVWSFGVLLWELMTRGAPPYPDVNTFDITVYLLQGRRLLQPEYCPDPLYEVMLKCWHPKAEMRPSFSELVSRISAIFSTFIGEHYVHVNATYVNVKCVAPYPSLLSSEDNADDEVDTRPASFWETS
# Method: (specific activity approx. 500 cpm/pmol, concentration as required) and 0.2 μM test compound. The reaction is initiated by the addition of the MgATP mix. After incubation for 40 minutes at room temperature, the reaction is stopped by the addition of 3% phosphoric acid solution. 10 μL of the reaction is then spotted onto a P30 filtermat and washed three times for 5 minutes in 75 mM phosphoric acid and once in methanol prior to drying and scintillation counting. This assay is performed by Millipore. The experiment is carried out in duplicate. The value for the control sample (DMSO) was set to 100%, and the values for the compound-treated samples were expressed as activity relative to the control sample.
# U87-MG cells = experiment: Cellular proliferation analysis (MTS assay), U87-MG; format: cell-based; conditions: Homo sapiens, U-87 MG, 168 h, read-out: IC50 U87-MG
# Method: (§1) Cell proliferation analysis was conducted by the MTS assay protocol. Briefly, U87-MG cells will be cultured in EMEM medium, EBC-1 cells and SNU-5 cells will be cultured in MEM medium, MKN45 cells, NCI-H1975 cells and NCI-H1993 cells will be cultured in RPMI1640 medium, A549 cells will be cultured in McCoy's 5a medium. […] All culture media will be purchased from GIBCO (USA). The cells will be harvested respectively during the logarithmic growth period and counted with hemocytometer. […] Add […] cell suspensions to 96-well plates (triplicates for each cell concentration), the final cell densities are 2×10^4 or 1×10^4 or 5×10^3 cells/well. The density of 5×10^3 cells/well will be used for our first test. The appropriate cell density will be determined and adjusted according to the results of our first test. The next day, dissolve the test article or positive drugs with DMSO or PBS as stock solution. Dispense 2 μl drug solution in 1 ml culture media. Add 200 μl drug media into 96-well plates (triplicate for each drug concentration) after discard the old media. The final concentration of drug will be 0, 0.03, 0.1, 0.3, 1, 3, 10, 30 or 100 μM. The plates will be cultured for another 7 days, then measured by means of MTS assay. Prepare MTS/PMS solution immediately prior to use, pipet 20 μl of the mixture into each well of the 96 well assay plate containing 100 μl culture media. (The final reaction volume is 120 μl). Incubate the plate for 1-4 hours at 37° C. in a humidified, 5% CO2 atmosphere. Record the absorbance at 490 nm using Victor X5 microplate spectrophotometer.
# EBC-1 cells = experiment: Cellular proliferation analysis (MTS assay), EBC-1; format: cell-based; conditions: Homo sapiens, read-out: IC50 EBC-1
# Method: as §1
# MKN45 cells = experiment: Cellular proliferation analysis (MTS assay), MKN45; format: cell-based; conditions: Homo sapiens, MKN-45, 168 h, read-out: IC50 MKN45
# Method: as §1
# NCI-H1975 cells = experiment: Cellular proliferation analysis (MTS assay), NCI-H1975; format: cell-based; conditions: Homo sapiens, read-out: IC50 NCI-H1975
# Method: as §1
# A549 cells = experiment: Cellular proliferation analysis (MTS assay), A549; format: cell-based; conditions: Homo sapiens, read-out: IC50 A549
# Method: as §1
# NCI-H1993 cells = experiment: Cellular proliferation analysis (MTS assay), NCI-H1993; format: cell-based; conditions: Homo sapiens, read-out: IC50 NCI-H1993
# Method: as §1
# SNU-5 cells = experiment: Cellular proliferation analysis (MTS assay), SNU-5; format: cell-based; conditions: Homo sapiens, SNU-5, 168 h, read-out: IC50 SNU5
# Method: as §1
# A549 tumors = conditions: oral gavage, vs vehicle control
# Method: (§2) Human non small cell lung cancer cells A549, human gastric cancer cells MKN45, and human lung squamous cell carcinoma cells EBC-1 are expanded in culture, harvested, and injected subcutaneously onto the right flank of BALB/c nude mice. Testing compound is prepared in an appropriate vehicle and is administered by oral gavage when tumors are established (6-10 days after implant). Tumor response is determined by tumor volume measurement performed twice a week during the course of treatment. Tumor volume inhibition (% growth inhibition) is calculated by comparing treated groups to vehicle control group. Body weight is taken as a general measurement of toxicity.
# EBC-1 tumors = conditions: oral gavage, vs vehicle control
# Method: as §2
# MKN45 tumors = conditions: oral gavage, vs vehicle control
# Method: as §2
# [1] = 168 h, EBC-1 cells, 7 days, MTS
# [2] = 168 h, NCI-H1975 cells, 7 days, MTS
# [3] = 168 h, NCI-H1993 cells, 7 days, MTS
Activity (control) % (Met (h)) [%],"IC50 (U87-MG cells; U87-MG cells, 7 days, MTS) [µM]","IC50 (MKN45 cells; MKN45 cells, 7 days, MTS) [µM]",IC50 (NCI-H1975 cells; [2]) [µM],"IC50 (A549 cells; 168 h, A549 cells, 7 days, MTS) [µM]",IC50 (NCI-H1993 cells; [3]) [µM],"IC50 (SNU-5 cells; SNU5 cells, 7 days, MTS) [µM]",SMILES,IC50 (EBC-1 cells; [1]) [µM],other results
11,5.1,6.7,17.8,23.3,4.6,7.8,"O=C(Nc1ccc(Oc2ccnc3c2CCN3)c(F)c1)c1cccn(-c2ccc(F)cc2)c1=O [Example 7, N-(4-(2,3-dihydro-1H-pyrrolo[2,3-b]pyridin-4-yloxy)-3-fluorophenyl)-1-(4-fluorophenyl)-2-oxo-1,2-dihydropyridine-3-carboxamide]",9.4,
6,5.5,1.3,8.3,15.7,7.9,2.9,"O=C(Nc1ccc(Oc2ccnc3c2OCCN3)cc1)c1cccn(-c2ccc(F)cc2)c1=O [Example 9, N-(4-(3,4-dihydro-2H-pyrido[3,2-b][1,4]oxazin-8-yloxy)phenyl)-1-(4-fluorophenyl)-2-oxo-1,2-dihydropyridine-3-carboxamide]",0.6,
15,3.8,11.5,23.2,20.6,9.2,9.3,O=C(Nc1ccc(F)cc1)C1(C(=O)Nc2ccc(Oc3ccnc4c3CCN4)c(F)c2)CC1 [Example 12],11.1,
51,,,,,,,"Cc1c(C(=O)Nc2ccc(Oc3ccnc4c3CCN4)c(F)c2)c(=O)n(-c2ccccc2)n1C [Example 19, N-(4-(2,3-dihydro-1H-pyrrolo[2,3-b]pyridin-4-yloxy)-3-fluorophenyl)-1,5-dimethyl-3-oxo-2-phenyl-2,3-dihydro-1H-pyrazole-4-carboxamide]",,
2,4.7,1.2,14.3,18.1,0.7,1.7,"O=C(Nc1ccc(Oc2ccnc3c2OCCCN3)cc1)c1c[nH]cc(-c2ccc(F)cc2)c1=O [Example 56, 5-(4-Fluoro-phenyl)-4-oxo-1,4-dihydro-pyridine-3-carboxylic acid [4-(6,7,8,9-tetrahydro-5-oxa-1,9-diaza-benzocyclohepten-4-yloxy)-phenyl]-amide]",0.1,

SMILES,Activity (control) % (Met (h)) [%],"IC50 (U87-MG cells; U87-MG cells, 7 days, MTS) [µM]","IC50 (MKN45 cells; MKN45 cells, 7 days, MTS) [µM]",IC50 (NCI-H1975 cells; [2]) [µM],"IC50 (A549 cells; 168 h, A549 cells, 7 days, MTS) [µM]",IC50 (NCI-H1993 cells; [3]) [µM],"IC50 (SNU-5 cells; SNU5 cells, 7 days, MTS) [µM]",IC50 (EBC-1 cells; [1]) [µM],other results
"O=C(Nc1ccc(Oc2ccnc3c2CCN3)c(F)c1)c1c[nH]cc(-c2ccc(F)cc2)c1=O [Example 1, N-(4-(2,3-dihydro-1H-pyrrolo[2,3-b]pyridin-4-yloxy)-3-fluorophenyl)-5-(4-fluorophenyl)-4-oxo-1,4-dihydropyridine-3-carboxamide]",1,,,,,,,,"IC50 (U87-MG cells): 3.4 µM; IC50 (EBC-1 cells; EBC-1, 168 h): 0.06 µM; IC50 (MKN45 cells): 0.4 µM; IC50 (NCI-H1975 cells; NCI-H1975, 168 h): 13 µM; IC50 (A549 cells; A549, 168 h): 15.4 µM; IC50 (NCI-H1993 cells; NCI-H1993, 168 h): 0.4 µM; IC50 (SNU-5 cells): 0.9 µM; growth inhibition of A549 tumors (A549 tumors; 60 mg/kg (qd x24)): 76.6%; growth inhibition of A549 tumors (A549 tumors; 120 mg/kg (qd x24)): 96.7%; growth inhibition of EBC-1 tumors (EBC-1 tumors; 40 mg/kg (qd x17)): 56.5%; growth inhibition of EBC-1 tumors (EBC-1 tumors; 80 mg/kg (qd x17)): 100%; growth inhibition of MKN45 tumors (MKN45 tumors; 60 mg/kg (qd x22)): 38.9%; growth inhibition of MKN45 tumors (MKN45 tumors; 120 mg/kg (qd x22)): 71.9%"
"O=C(Nc1ccc(Oc2ccnc3c2OCCN3)c(F)c1)c1c[nH]cc(-c2ccc(F)cc2)c1=O [Example 3, N-(4-(3,4-dihydro-2H-pyrido[3,2-b][1,4]oxazin-8-yloxy)-3-fluorophenyl)-5-(4-fluorophenyl)-4-oxo-1,4-dihydropyridine-3-carboxamide]",6,,,,,,,,"IC50 (U87-MG cells): 6.3 µM; IC50 (EBC-1 cells; EBC-1, 168 h): 0.4 µM; IC50 (MKN45 cells): 6.2 µM; IC50 (NCI-H1975 cells; NCI-H1975, 168 h): 14.6 µM; IC50 (A549 cells; A549, 168 h): 20.1 µM; IC50 (NCI-H1993 cells; NCI-H1993, 168 h): 1.5 µM; IC50 (SNU-5 cells): 3.1 µM"
"Cc1c(C(=O)Nc2ccc(Oc3ccnc4c3OCCN4)c(F)c2)c(=O)n(-c2ccccc2)n1C [Example 20, N-(4-(3,4-dihydro-2H-pyrido[3,2-b][1,4]oxazin-8-yloxy)-3-fluorophenyl)-1,5-dimethyl-3-oxo-2-phenyl-2,3-dihydro-1H-pyrazole-4-carboxamide]",45,,,,,,,,
